In patent US9616107B2, “Therapy for kidney disease and/or heart failure” (priority 2011, dated 2017):
Where two headings read alike, the source gives them in different places. Ends that are not written are not given here.

Experiment: Toxicology study of VD in rats: 5-day continuous subcutaneous infusion by Alzet minipumps, plasma VD by radioimmunoassay, clinical observations
Format: in vivo
Settings: for maximum tolerated dose for prolonged subcutaneous administration: expected; for Cmin: SC infusion 5 days
Method: VD was administered to a rat model via a subcutaneous delivery route to assess the toxicity of VD and to determine if a lethal dosing amount of the VD can be reached by subcutaneous administration. As noted above, a maximum tolerated or lethal dosing amount was not observed for canines.
VD-acetate (Bachem lot 2502022) was prepared in the Tris/Glycerin/m-cresol buffer at a concentration of 3 mg/mL or 15 mg/mL. The VD solution was administered continuously by subcutaneous infusion using Alzet® (Durect Corp.) osmotic minipumps (model 2002) over a period of 5 days to 3 study groups, where each study group (Groups 1-3) contained 3 male and 3 female Sprague Dawley rats.
The continuous subcutaneous delivery dose for Group 1 was calibrated to yield an administration of approximately 100 ng/(kg·min) of VD, which is in the range of a dosing regimen useful for clinical use in humans. […] However, an estimated body weight of 250 g was used for all animals (males and females) for reporting pharmacokinetic and toxicological calculations; therefore, the estimated daily dose is reported as 0.144 mg/kg·day (or 100 ng/(kg·min)) for all animals in Group 1, and the total dose delivered to each animal over the 5-day period was 0.180 mg.
The continuous subcutaneous delivery dose for Group 2 was calibrated to yield an administration of approximately 1000 ng/(kg·min) of VD, which is 10-fold higher than for Group 1. Each rat in Group 2 each had two Alzet pumps implanted to have a combined infusion rate was 1.0 μL/hr of the 15 mg/mL VD solution. The resulting actual mean weight-based doses were 1.026 and 1.629 mg/(kg·day) for males and females, respectively. For the pharmacokinetic calculations, an estimated body weight of 280 g was used for all animals (males and females); therefore, the estimated daily dose was reported as 1.29 mg/(kg·day) (or ˜896 ng/(kg·min)) for all animals in Group 2, and the total dose delivered to each animal over the 5 day period was 1.8 mg.
The continuous subcutaneous delivery dose for Group 3 was calibrated to yield an administration of approximately 2000 ng/(kg·min). Each rat each had four Alzet pumps implanted for a combined infusion rate was 2.0 μL/hr of the 15 mg/mL VD solution. The resulting actual mean weight-based doses were 1.870 and 3.303 mg/(kg·day) for males and females, respectively. For pharmacokinetic calculations, an estimated body weight of 300 g was used for all animals (males and females); therefore the estimated daily dose was reported as 2.4 mg/(kg·day) (or (or ˜1667 ng/(kg·min)) for all animals in Group 3, and the total dose delivered to each animal for the 5 day period was 3.6 mg. The dosing for Groups 1-3 is summarized in Table 5.
All animals in Groups 1-3 were observed twice daily for mortality and moribund appearance during the 5-day dosing period and during an at least 16-day pretest period. Clinical examinations were performed daily for all animals following surgery to implant the Alzet pumps. Detailed physical examinations were conducted on all animals approximately weekly during a pretest period of at least 16 days, prior to beginning dosing (Day 0), and on Day 5 prior to euthanasia. Individual body weights were recorded at least weekly during the pretest period, on Day 0 prior to dosing, and on Day 5 prior to euthanasia. Individual food consumption was recorded approximately weekly during the pretest period, on Day 0 prior to dosing, and on Day 5 prior to euthanasia. Blood samples for determination of plasma drug concentration were collected from all animals at approximately 4, 8, and 24 hours after pump implantation on Day 0 and immediately prior to euthanasia on Day 5 (120 hours after the start of dosing). Blood was collected via the retro-orbital sinus from animals anesthetized with isoflurane into chilled tubes containing K3-EDTA. Following the final blood collection, the animals were euthanized and discarded. […]

[1] = female, Sprague Dawley, rat, in vivo, sc, 0.18 mg
[2] = female, Sprague Dawley, rat, in vivo, sc, 1.8 mg
[3] = female, Sprague Dawley, rat, in vivo, sc, 3.6 mg

EVVPPQVLSEPNEEAGAALSPLPEVPPWTGEVSPAQR [VD, Vessel Dilator]
level at 8 h (Sprague Dawley, rat, in vivo, sc, 0.18 mg total dose, male rats N=3, 0.180 mg, 8 hours post-dosing, read-out: Mean concentration of vessel dilator in plasma): 11.9 ng/mL
level at 4 h (Sprague Dawley, rat, in vivo, sc, 0.18 mg, male rats N=3, 0.180 mg, 4 hours post-dosing (from start of infusion), read-out: Mean concentration of vessel dilator in plasma): 17.1 ng/mL
level at 24 h (Sprague Dawley, rat, in vivo, sc, 0.18 mg, male rats N=3, 0.180 mg, 24 hours post-dosing, read-out: Mean concentration of vessel dilator in plasma): 13.3 ng/mL
level at 120 h (Sprague Dawley, rat, in vivo, sc, 0.18 mg, male rats N=3, 0.180 mg, 120 hours post-dosing, all samples, read-out: Mean concentration of vessel dilator in plasma): 78.6 ng/mL
level at 8 h (Sprague Dawley, rat, in vivo, sc, 1.8 mg total dose, male rats N=3, 1.80 mg, 8 hours post-dosing, read-out: Mean concentration of vessel dilator in plasma): 204 ng/mL
level at 4 h (Sprague Dawley, rat, in vivo, sc, 1.8 mg, male rats N=3, 1.80 mg, 4 hours post-dosing, read-out: Mean concentration of vessel dilator in plasma): 62.3 ng/mL
level at 24 h (Sprague Dawley, rat, in vivo, sc, 1.8 mg, male rats N=3, 1.80 mg, 24 hours post-dosing, read-out: Mean concentration of vessel dilator in plasma): 167 ng/mL
level at 120 h (Sprague Dawley, rat, in vivo, sc, 1.8 mg, male rats N=3, 1.80 mg, 120 hours post-dosing, read-out: Mean concentration of vessel dilator in plasma): 214 ng/mL
level at 4 h (Sprague Dawley, rat, in vivo, sc, 3.6 mg, male rats N=3, 3.60 mg, 4 hours post-dosing, read-out: Mean concentration of vessel dilator in plasma): 370 ng/mL
level at 8 h (Sprague Dawley, rat, in vivo, sc, 3.6 mg, male rats N=3, 3.60 mg, 8 hours post-dosing, read-out: Mean concentration of vessel dilator in plasma): 255 ng/mL
level at 24 h (Sprague Dawley, rat, in vivo, sc, 3.6 mg, male rats N=3, 3.60 mg, 24 hours post-dosing, read-out: Mean concentration of vessel dilator in plasma): 168 ng/mL
level at 120 h (Sprague Dawley, rat, in vivo, sc, 3.6 mg, male rats N=3, 3.60 mg, 120 hours post-dosing, read-out: Mean concentration of vessel dilator in plasma): 261 ng/mL
maximum tolerated dose for prolonged subcutaneous administration (female rats): > 2300 ng/kg·min
level at 4 h [1]: 27.5 ng/mL
level at 8 h [1]: 31.6 ng/mL
level at 24 h [1]: 33.2 ng/mL
level at 120 h [1]: 27.1 ng/mL
level at 4 h [2]: 135 ng/mL
level at 8 h [2]: 275 ng/mL
level at 24 h [2]: 320 ng/mL
level at 120 h [2]: 265 ng/mL
level at 4 h [3]: 725 ng/mL
level at 8 h [3]: 454 ng/mL
level at 24 h [3]: 427 ng/mL
level at 120 h [3]: 567 ng/mL
Cmin (male rats, 1.80 mg total dose): 62.3 ng/mL
Cmin (male rats, 3.60 mg total dose): 167 ng/mL
maximum tolerated dose for prolonged subcutaneous administration (male rats): above 1300 ng/kg·min
Tmax (male, Sprague Dawley, rat, in vivo, sc, Tmax): 81.3 h
clinical signs of toxicity (rat, in vivo): None of the animals in Groups 1-3 showed clinical signs of toxicity
plasma concentration up to which no toxicity issues were shown (rat, in vivo, sc): approx. 740 ng/mL
AUCτ of Group 3 females compared to Group 3 males (rats, 3.60 mg, similar when normalized to weight): up to 2 fold
clinical observations, body weight gain, food consumption (rats, 5-day dosing period): no remarkable clinical observations, effects on body weight gain or effects on food consumption
survival (rats, Groups 1-3): all animals survived until euthanasia
